Results from patent publication US20070269451A1, “Nucleic Acid Vaccination” (priority 1999, published 2007).
“Also recorded” adds a separate entry of the source.

What was measured:
anti-MUC1 antibody HMFG2 = assay: ELISA binding of anti-MUC1 antibody HMFG2 to synthetic MUC1 VNTR peptides; design: key: +++ indicates strong binding; ++ indicates fair binding; + indicates weak binding; − indicates no significant binding; conditions: peptide coated 50 μg/ml to 25 ng/ml; semiquantitative scale; absorbance at 490 nm
Excerpt: (§1) Synthetic peptides were designed containing mutations at the glycosylation sites. Particular attention was focused on substitutions at the threonine residue in this sequence (T11). Table 1 below indicates the peptides that were designed and their mutated glycosylation sites. Peptides containing two identical copies of the designed VNTR were synthesised at Genemed Synthesis Inc (San Francisco, Calif.). These peptides were then screened for their ability to bind to a number of anti-MUC1 monoclonal antibodies in an ELISA.
(§2) Peptides were prepared as aqueous solutions in 50 mM sodium bicarbonate buffer pH9.6 and coated onto Nunc Maxisorp plates at 4° C. overnight at a range of concentrations between 50 μg/ml and 25 ng/ml. After extensive washing with TBS-Tween (Tris-buffered saline, pH7.4 containing 0.05% Tween20), the plates were blocked with blocking solution (3% w/v bovine serum albumin in TBS-Tween) for 2 hours at room temperature. Anti-MUC1 antibodies HMFG1 (Novocastra, Newcastle, UK), HMFG2 (Novocastra), SM3 (Girling et al, 1989, Int J Cancer 43:1072-1076) and ATR1 (Bynum et al, 1995, Hybridoma 14:587-591) were diluted in blocking solution, added to the plate and incubated at room temperature for one hour. After washing, bound antibody was labelled by incubation with HRP-conjugated anti-mouse IgG (P260, Dako, Denmark) at 1/2000 dilution in blocking buffer. The plate was washed again and bound conjugate detected using Fast OPD colour reagents (Sigma, Poole, UK). The reaction was stopped by the addition of 3M sulphuric acid, and the OPD product quantitated by measuring the absorbance at 490 nm.
(§3) The ELISA signal for each antibody and peptide combination is ranked according to a semiquantitative scale, where +++ indicates strong binding, ++ indicates fair binding, + indicates weak binding, and − indicates no significant binding.

antibody SM3 = assay: Antibody binding curve for the mutant polypeptides (SM3 ELISA, FIG. 4); conditions: peptide coated at 3 ug/ml
Experimental: as §2
The polypeptides described in table 1 above were again used in this experiment. The methodology was essentially similar to Example 1 except that peptides were coated onto an ELISA plate at a fixed concentration of 3 ug/ml, and different concentrations of antibody SM3 were applied.

anti-MUC1 antibody HMFG1 = assay: ELISA binding of anti-MUC1 antibody HMFG1 to synthetic MUC1 VNTR peptides; design: key: +++ indicates strong binding; ++ indicates fair binding; + indicates weak binding; − indicates no significant binding; conditions: peptide coated 50 μg/ml to 25 ng/ml; semiquantitative scale; absorbance at 490 nm
Excerpt: as §1, §2, §3

anti-MUC1 antibody SM3 = assay: ELISA binding of anti-MUC1 antibody SM3 to synthetic MUC1 VNTR peptides; design: key to ELISA signal, Antibody SM3: +++ indicates strong binding; ++ indicates fair binding; + indicates weak binding; − indicates no significant binding; conditions: for ELISA signal, Antibody SM3: peptide coated 50 μg/ml to 25 ng/ml, semiquantitative scale, absorbance at 490 nm; for binding for the SM3 antibody (in words): Table 2
Excerpt: as §1, §2, §3

anti-MUC1 antibody ATR1 = assay: ELISA binding of anti-MUC1 antibody ATR1 to synthetic MUC1 VNTR peptides; design: key: +++ indicates strong binding; ++ indicates fair binding; + indicates weak binding; − indicates no significant binding; conditions: peptide coated 50 μg/ml to 25 ng/ml; semiquantitative scale; absorbance at 490 nm
Excerpt: as §1, §2, §3

[1] = different concentrations of SM3

Substance | ELISA signal, Antibody HMFG2 (anti-MUC1 antibody HMFG2) | SM3 antibody binding pattern / affinity across a range of antibody concentrations (antibody SM3; [1]) | SM3 antibody binding pattern / affinity across a range of antibody concentrations (antibody SM3; different concentrations of SM3, listed as Mut 5A) | ELISA signal, Antibody HMFG1 (anti-MUC1 antibody HMFG1) | ELISA signal, Antibody SM3 (anti-MUC1 antibody SM3) | ELISA signal, Antibody ATR1 (anti-MUC1 antibody ATR1) | binding for the SM3 antibody (in words) (anti-MUC1 antibody SM3)
Ac-(PAHGVVAAPDARPAPGAVAP)2-NH2 [Mut5A] | − | essentially the same as those shown for Mut5W | substantially the same results as those shown for Mut5W | ++ | − | +++ | 
Ac-(PAHGVVAAPDIRPAPGAVAP)2-NH2 [Mut5I] | +++ | does little to reduce the affinity |  | ++ | +++ | ++ | maintain binding
Ac-(PAHGVVAAPDNRPAPGAVAP)2-NH2 [Mut5N] | − | substantially the same results as those shown for Mut5W; also recorded: essentially the same as those shown for Mut5W |  | − | − | +++ | 
Ac-(PAHGVVAAPDPRPAPGAVAP)2-NH2 [Mut5P] | − | substantially the same results as those shown for Mut5W; also recorded: essentially the same as those shown for Mut5W |  | + | − | + | 
Ac-(PAHGVVAAPDTRPAPGAVAP)2-NH2 [Mut4] | +++ |  |  | ++ | +++ | +++ | 
Ac-(PAHGVVAAPDVRPAPGAVAP)2-NH2 [Mut5V] | +++ | does little to reduce the affinity |  | − | +++ | +++ | maintain binding
Ac-(PAHGVVAAPDWRPAPGAVAP)2-NH2 [Mut5W] | − |  |  | − | − | ++ | 
